{"source": "patent US20230310431A1", "about": "“COMPOSITION FOR PREVENTING OR TREATING LIVER FIBROSIS, CONTAINING TRIAZOLE DERIVATIVE AS ACTIVE INGREDIENT” (INDUSTRY-ACADEMIC COOPERATION FOUNDTION, YONSEI UNIVERSITY, priority 2020, published 2023)", "key": {"[1]": {"tested_on": "Human hepatic stellate LX-2 cells", "test": "Cytotoxicity measurement (WST assay)", "assay_type": "cell-based", "settings": "48 hours", "method": "Human hepatic stellate LX-2 cells were seeded in a 96-well plate with DMEM (Welgene) containing 2% fetal bovine serum (Gibco) and 1% penicillin-streptomycin (Gibco), and cultured in an incubator for 24 hours at 37° C. under 5% CO2. Next, the cells were treated with ML323 at concentrations of 0, 1, 5, 10 and 25 μM. After 48 hours, 10 μl of EZ-Cytox was added to the cell culture medium and reacted for 30 minutes, and the absorbance at 450 nm was measured using a microplate reader.\nCytotoxicity measurement (WST assay)"}, "[2]": {"tested_on": "COL1A1", "test": "Measurement of cell fibrosis: COL1A1 mRNA in TGF-β-activated LX-2 cells", "assay_type": "cell-based, Human", "settings": "TGF-β 2.5 ng/ml, ML323 1, 10, 25 μM, 24 hours, versus cells not treated with ML323, FIG. 2", "method": "Human hepatic stellate LX-2 cells were seeded in a 6-well plate with DMEM (Welgene) containing 2% fetal bovine serum (Gibco) and 1% penicillin-streptomycin (Gibco), and cultured in an incubator for 24 hours at 37° C. under 5% CO2. Thereafter, the medium was replaced with serum-free DMEM, and the cells were starved for 24 hours. Next, the cells were activated by treatment with TGF-β at a concentration of 2.5 ng/ml, and at the same time, the cells were treated with ML323 at concentrations of 0, 1, 10 and 25 μM. After 24 hours, the cells were harvested and used for gene expression analysis.\n(§1) cDNA was synthesized from the extracted RNA using ReverTraAce RT master mix (TOYOBO), and then gene expression changes were measured using a real-time PCR system (ABI)."}, "[3]": {"tested_on": "fatty liver mouse model", "test": "Measurement of liver weight change in fatty liver mouse model", "assay_type": "in vivo, C57BL/6 mice", "settings": "50 mg/kg oral twice a week for 7 weeks, FIG. 3", "method": "(§2) Twenty-four 6-week-old C57BL/6 mice were acclimated for 1 week and then divided into two groups. One group (12 mice) was fed a normal diet, and the other group (12 mice) was fed a high-fat diet for 9 weeks. After 9 weeks, each of the normal diet group and the high-fat diet group was subdivided into two groups, and each of vehicle and 50 mg/kg of ML323 was orally administered thereto twice a week for 7 weeks. Normal diet and high-fat diet were continued during oral administration.\nAfter the experimental period was over, mice were sacrificed, and liver tissues were harvested and weighed."}, "[4]": {"tested_on": "fatty liver mouse model", "test": "Measurement of liver function indicators (AST, ALT) in blood", "assay_type": "in vivo, C57BL/6 mice", "settings": "high-fat diet group, 50 mg/kg oral twice a week for 7 weeks, versus vehicle-administered control group, FIG. 4", "method": "as §2\nAfter the experimental period was over, blood was collected from each mouse, and after 30 minutes, the supernatant (plasma) was separated from the blood by centrifugation at 2,000 rpm for 15 minutes. The separated plasma was analyzed by Seoul Clinical Laboratories (SCL) to measure the levels of AST and ALT, which are indicators of liver function."}, "[5]": {"tested_on": "COL1A1", "test": "Expression of hepatic fibrosis inducers in liver tissue (real-time PCR): COL1A1", "assay_type": "in vivo, C57BL/6 mice", "settings": "high-fat diet group, 50 mg/kg oral, FIG. 5A", "method": "as §2\n(§3) The tissue harvested from each mouse was added to 1 ml of Easy blue (Intron) and then minced using a homogenizer. 200 μl of chloroform was added to and mixed well with the tissue, and the mixture was incubated for 3 minutes and then centrifuged at 13,200 rpm for 15 minutes at 4° C. After centrifugation, only the supernatant was transferred to a fresh tube, and the same amount of isopropyl alcohol was added thereto and mixed well therewith. After incubation for 10 minutes, centrifugation was performed at 13,200 rpm for 10 minutes at 4° C. After removing the supernatant, the RNA pellet was washed with 70% ethanol and centrifuged at 13,200 rpm for 5 minutes at 4° C. […]\nas §1"}, "[6]": {"tested_on": "CCL2", "test": "Expression of inflammatory factors in liver tissue (real-time PCR): CCL2", "assay_type": "in vivo, C57BL/6 mice", "settings": "high-fat diet group, 50 mg/kg oral, versus control group, FIG. 5B", "method": "as §2, §3, §1"}, "[7]": {"tested_on": "TGF-β", "test": "Expression of inflammatory factors in liver tissue (real-time PCR): TGF-β", "assay_type": "in vivo, C57BL/6 mice", "settings": "high-fat diet group, 50 mg/kg oral, versus control group, FIG. 5B", "method": "as §2, §3, §1"}, "[8]": {"tested_on": "F4/80", "test": "Expression of inflammatory factors in liver tissue (real-time PCR): F4/80", "assay_type": "in vivo, C57BL/6 mice", "settings": "high-fat diet group, 50 mg/kg oral, versus control group, FIG. 5B", "method": "as §2, §3, §1"}, "[9]": {"tested_on": "fatty liver mouse model", "test": "Immunohistochemical analysis of liver tissue (Sirius red, a-SMA), fatty liver mouse model", "assay_type": "in vivo, C57BL/6 mice", "settings": "50 mg/kg oral, FIG. 6", "method": "as §2\nThe liver tissue harvested from each mouse was fixed in a 10% formalin solution, and a paraffin block and a slide were prepared using each liver tissue that had been fixed. The degree of fibrosis in liver tissue was measured using Sirius red solution staining and a-SMA immunostaining."}, "[10]": {"tested_on": "CDAA diet mice", "test": "Immunohistochemical analysis of liver tissue (H&E, F4/80, a-SMA), CDAA diet non-alcoholic fatty liver model", "assay_type": "in vivo, C57BL/6 mice", "settings": "CDAA diet group, 50 mg/kg oral, FIG. 7", "method": "In addition, ten 6-week-old C57BL/6 mice were acclimated for 1 week and then fed CDAA (choline-deficient L-amino-defined) for 8 weeks to induce non-alcoholic fatty liver. Thereafter, the 10 mice were divided into two groups, to which a vehicle and 50 mg/kg of ML-323 were orally administered, respectively, and then liver tissues were stained with H&E, F4/80, and a-SMA."}}}
{"molecule": "Cc1cnc(-c2ccccc2C(C)C)nc1NCc1ccc(-n2ccnn2)cc1", "note": "[ML323, N-(4-(1H-1,2,3-triazol-1-yl)benzyl)-2-(24 sopropylphenyl)-5-methylpyrimidin-4-amine]", "values": [{"measurement": "viability of LX-2 cells versus untreated cells", "setting": "[1]; 0, 1, 5, 10 and 25 μM, FIG. 1", "value": "no significant difference in viability"}, {"measurement": "cytotoxicity", "setting": "[1]; all treatment concentrations (up to 25 μM)", "value": "did not exhibit cytotoxicity"}, {"measurement": "mRNA expression of COL1A1", "setting": "[2]", "value": "significantly lower"}, {"measurement": "liver weight", "setting": "[3]; high-fat diet group", "value": "decreased"}, {"measurement": "accumulation of fat in liver tissue", "setting": "[3]; high-fat diet group, versus control group", "value": "significantly decreased"}, {"measurement": "liver weight or size", "setting": "[3]; normal diet group, versus control group", "value": "no significant difference in liver weight or size"}, {"measurement": "decrease of ALT level in the blood", "setting": "[4]", "value": 70, "unit": "%"}, {"measurement": "decrease of AST level in the blood", "setting": "[4]", "value": 40, "unit": "%"}, {"measurement": "mRNA expression level of the COL1A1 gene in liver tissue", "setting": "[5]", "value": "greatly decreased"}, {"measurement": "mRNA expression level of CCL2 in liver tissue", "setting": "[6]", "value": "significantly decreased"}, {"measurement": "mRNA expression level of TGF-β in liver tissue", "setting": "[7]", "value": "significantly decreased"}, {"measurement": "mRNA expression level of F4/80 in liver tissue", "setting": "[8]", "value": "significantly decreased"}, {"measurement": "hepatic fibrosis in liver tissue (Sirius red staining and a-SMA immunostaining)", "setting": "[9]", "value": "significantly decreased"}, {"measurement": "inflammation and hepatic fibrosis in liver tissue (H&E staining, f4/80 and a-SMA immunostaining)", "setting": "[10]", "value": "significantly decreased"}]}
